Source: PubChem BioAssay AID1918999 (Molecular Pharmacology Branch, DTP, NCI, 2023)
pIC50: −log10 of the molar value.

Test system: 556581-035-R-J1-PDC complex spheroid growth
Assay: Anticancer human tumor 556581-035-R-J1-PDC patient-derived ovarian carcinoma cell line growth inhibition [AhR]
Settings: for viability, T/C: stronger effect = lower value
Procedure, shortened: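 Agents were dosed in half-log steps down from roughly clinical Cmax, or from 10 microM where Cmax was unknown, alone and with AhR antagonists. Read-out: percent test/control growth of tumor spheroids containing HUVEC and MSC stromal cells.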

[1] = curve of first compound, second compound 0.1 µM
[2] = curve of first compound, second compound 0.316 µM
[3] = curve of first compound, second compound 1 µM
[4] = curve of first compound, second compound 3.16 µM
[5] = curve of first compound, second compound 10 µM
[6] = second compound 0.1 µM, first compound 0.00949 µM
[7] = second compound 0.1 µM, first compound 0.03 µM
[8] = second compound 0.1 µM, first compound 0.0949 µM
[9] = second compound 0.1 µM, first compound 0.3 µM
[10] = second compound 0.316 µM, first compound 0.00949 µM
[11] = second compound 0.316 µM, first compound 0.03 µM
[12] = second compound 0.316 µM, first compound 0.0949 µM
[13] = second compound 0.316 µM, first compound 0.3 µM
[14] = second compound 1 µM, first compound 0.00949 µM
[15] = second compound 1 µM, first compound 0.03 µM
[16] = second compound 1 µM, first compound 0.0949 µM
[17] = second compound 1 µM, first compound 0.3 µM
[18] = second compound 3.16 µM, first compound 0.00949 µM
[19] = second compound 3.16 µM, first compound 0.03 µM
[20] = second compound 3.16 µM, first compound 0.0949 µM
[21] = second compound 3.16 µM, first compound 0.3 µM
[22] = second compound 10 µM, first compound 0.00949 µM
[23] = second compound 10 µM, first compound 0.03 µM
[24] = second compound 10 µM, first compound 0.0949 µM
[25] = second compound 10 µM, first compound 0.3 µM
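Wherever viability, T/C is given: compound exposure lasted 7 days; 100% = DMSO vehicle control growth.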

Work on O=C(C=Cn1cnc(-c2cc(C(F)(F)F)cc(C(F)(F)F)c2)n1)NNc1cnccn1 + Cc1cncc(-c2nc(NCCc3c[nH]c4ccccc34)c3ncn(C(C)C)c3n2)c1 yielded a pIC50 [1] of under 5.52, a pIC50 [2] of under 5.52 and a pIC50 [3] of 5.73. The pIC50 [4] was under 5.52, the pIC50 [5] was under 5.52 and the viability, T/C [6] was 94.2%. For the same compound, the viability, T/C [7] was 99.9%, the viability, T/C [8] was 95.5% and the viability, T/C [9] was 85.9%. For the same compound, the viability, T/C (second compound 0.1 µM, first compound 0.949 µM) was 70.8%, the viability, T/C (second compound 0.1 µM, first compound 3 µM) was 56.3% and the viability, T/C [10] was 85.5%. The viability, T/C [11] was 96.2%, the viability, T/C [12] was 74.8% and the viability, T/C [13] was 73.8%. For the same compound, the viability, T/C (second compound 0.316 µM, first compound 0.949 µM) was 62.6%, the viability, T/C (second compound 0.316 µM, first compound 3 µM) was 50.1% and the viability, T/C [14] was 93.9%. The viability, T/C [15] was 94.8%, the viability, T/C [16] was 87.5% and the viability, T/C [17] was 78.2%. The viability, T/C (second compound 1 µM, first compound 0.949 µM) was 65.4%, the viability, T/C (second compound 1 µM, first compound 3 µM) was 39.4% and the viability, T/C [18] was 92.8%. For the same compound, the viability, T/C [19] was 97.1%, the viability, T/C [20] was 95.9% and the viability, T/C [21] was 74.8%. It also gave a viability, T/C (second compound 3.16 µM, first compound 0.949 µM) of 57.3%, a viability, T/C (second compound 3.16 µM, first compound 3 µM) of 50.4% and a viability, T/C [22] of 81.6%. The viability, T/C [23] was 84.6%, the viability, T/C [24] was 73.9% and the viability, T/C [25] was 72.7%. The viability, T/C (second compound 10 µM, first compound 0.949 µM) was 64.8% and the viability, T/C (second compound 10 µM, first compound 3 µM) was 68.9%.

CC1COCCN1c1cc(C2(S(C)(=N)=O)CC2)nc(-c2ccnc3[nH]ccc23)n1 (stereo not drawn) + CC(CO)NC(=O)c1cc(-c2ccc(Cl)cc2)nn(-c2cnn(C)c2)c1=O showed a pIC50 [1] of under 5.00, a pIC50 [2] of under 5.00 and a pIC50 [3] of under 5.00. For the same compound, the pIC50 [4] was under 5.00, the pIC50 [5] was under 5.00 and the viability, T/C (second compound 0.1 µM, first compound 0.0316 µM) was 116%. It also gave a viability, T/C (second compound 0.1 µM, first compound 0.1 µM) of 113%, a viability, T/C (second compound 0.1 µM, first compound 0.316 µM) of 101% and a viability, T/C (second compound 0.1 µM, first compound 1 µM) of 92%. The viability, T/C (second compound 0.1 µM, first compound 3.16 µM) was 86.2%, the viability, T/C (second compound 0.1 µM, first compound 10 µM) was 69.1% and the viability, T/C (second compound 0.316 µM, first compound 0.0316 µM) was 97.1%. It also gave a viability, T/C (second compound 0.316 µM, first compound 0.1 µM) of 113%, a viability, T/C (second compound 0.316 µM, first compound 0.316 µM) of 105% and a viability, T/C (second compound 0.316 µM, first compound 1 µM) of 90.1%. It also gave a viability, T/C (second compound 0.316 µM, first compound 3.16 µM) of 81.4%, a viability, T/C (second compound 0.316 µM, first compound 10 µM) of 70.2% and a viability, T/C (second compound 1 µM, first compound 0.0316 µM) of 111%. It also gave a viability, T/C (second compound 1 µM, first compound 0.1 µM) of 105%, a viability, T/C (second compound 1 µM, first compound 0.316 µM) of 116% and a viability, T/C (second compound 1 µM, first compound 1 µM) of 98.2%. It also gave a viability, T/C (second compound 1 µM, first compound 3.16 µM) of 78.2%, a viability, T/C (second compound 1 µM, first compound 10 µM) of 67.6% and a viability, T/C (second compound 3.16 µM, first compound 0.0316 µM) of 105%. For the same compound, the viability, T/C (second compound 3.16 µM, first compound 0.1 µM) was 104%, the viability, T/C (second compound 3.16 µM, first compound 0.316 µM) was 107% and the viability, T/C (second compound 3.16 µM, first compound 1 µM) was 89.4%. For the same compound, the viability, T/C (second compound 3.16 µM, first compound 3.16 µM) was 83.5%, the viability, T/C (second compound 3.16 µM, first compound 10 µM) was 71.8% and the viability, T/C (second compound 10 µM, first compound 0.0316 µM) was 118%. For the same compound, the viability, T/C (second compound 10 µM, first compound 0.1 µM) was 119%, the viability, T/C (second compound 10 µM, first compound 0.316 µM) was 110% and the viability, T/C (second compound 10 µM, first compound 1 µM) was 101%. It also gave a viability, T/C (second compound 10 µM, first compound 3.16 µM) of 81.2% and a viability, T/C (second compound 10 µM, first compound 10 µM) of 72.5%.

For Cc1cncc(-c2nc(NCCc3c[nH]c4ccccc34)c3ncn(C(C)C)c3n2)c1, the viability, T/C (compound 0.316 µM) was 103% [middle of 20 runs], the viability, T/C (compound 10 µM) was 83.6% [middle of 20 runs] and the pIC50 (compound alone, run of 06/06/2022) was under 5.00.

CCc1c2c(nc3ccc(O)cc13)-c1cc3c(c(=O)n1C2)COC(=O)[C@]3(O)CC + Cc1ccccc1N=Nc1ccc(NC(=O)c2ccnn2C)c(C)c1 showed a pIC50 [1] of 7.67, a pIC50 [2] of 7.77 and a pIC50 [3] of 7.73. For the same compound, the pIC50 [4] was 7.69, the pIC50 [5] was 7.66 and the viability, T/C (second compound 0.1 µM, first compound 0.000949 µM) was 97.1%. The viability, T/C (second compound 0.1 µM, first compound 0.003 µM) was 87.2%, the viability, T/C [6] was 64.8% and the viability, T/C [7] was 42%. It also gave a viability, T/C [8] of 27.1%, a viability, T/C [9] of 12.8% and a viability, T/C (second compound 0.316 µM, first compound 0.000949 µM) of 98.1%. For the same compound, the viability, T/C (second compound 0.316 µM, first compound 0.003 µM) was 86.4%, the viability, T/C [10] was 64.3% and the viability, T/C [11] was 36.5%. The viability, T/C [12] was 18.3%, the viability, T/C [13] was 12.7% and the viability, T/C (second compound 1 µM, first compound 0.000949 µM) was 98.8%. The viability, T/C (second compound 1 µM, first compound 0.003 µM) was 82.5%, the viability, T/C [14] was 64.1% and the viability, T/C [15] was 41.5%. It also gave a viability, T/C [16] of 23.7%, a viability, T/C [17] of 16.7% and a viability, T/C (second compound 3.16 µM, first compound 0.000949 µM) of 84%. It also gave a viability, T/C (second compound 3.16 µM, first compound 0.003 µM) of 86.5%, a viability, T/C [18] of 74.6% and a viability, T/C [19] of 37.2%. It also gave a viability, T/C [20] of 20.7%, a viability, T/C [21] of 14.1% and a viability, T/C (second compound 10 µM, first compound 0.000949 µM) of 94.5%. It also gave a viability, T/C (second compound 10 µM, first compound 0.003 µM) of 88.3%, a viability, T/C [22] of 72.9% and a viability, T/C [23] of 40.8%. The viability, T/C [24] was 23.2% and the viability, T/C [25] was 14.2%.
